Assay results from patent US20040024055A1, “Pharmaceutical composition containing the exract of saururus chinensis baill useful as an anticancer agent and a process for the preparation thereof” (priority 2000, published 2004).
Several values for one entry are separate records, joined by “and”; a condition that tells them apart may be missing. Equal entries are not always repeated.

Columns and labels:
[1] = system: SK-Hep-1 liver cancer cell line; assay: MTT analysis, anticancer activity; format: cell-based, human; details: 48 hr
[2] = system: PC-3 prostate cancer cell line; assay: MTT analysis, anticancer activity; format: cell-based, human; details: 48 hr
[3] = system: DU-145 prostate cancer cell line; assay: MTT analysis, anticancer activity; format: cell-based, human; details: 48 hr
Experimental: To be specific, SK-Hep-1 cell, which is liver cancer cell line, was added to 96-well microplate (Falcon, USA) with the concentration of 3×10^5 cells/ml by 100 μl per well. Each extracted and separated substance dissolved in DMSO was added to the well by 100 μl for the final concentration to be from 50 μg/ml to 0.0244 μg/ml, with 200 μl of final volume. Each cell was cultured for 48 hr in a culture medium of 37° C. and 5% CO2. After cultivation, 20 μl of phosphate buffer solution containing 5 mg/ml of MTT (3-[4,5-dimethylthiazol-2-yl]-2,5-diphenyltetrazoliumbromide, Sigma Co.) reagent was added to each well, and then cultured for 4 hr. After taking 100 μl of supernant from each culture medium, 100 μl of 0.04N hydrochloric acid-isopropanol was added. After letting alone overnight, absorbance was measured at 560 nm using automatic Eliza detector (Molecular Divices Corp., USA). Anticancer activity of each extracted and separated substance was calculated from the absorbance value by Equation 1 and was expressed in terms of cell.
Average Existence Rate(%)=(Absorbance of Treated Group)/(Absorbance of Control Group)×100

BT-20 = assay: MTT analysis, anticancer activity; format: cell-based, human; details: 48 hr
BT-549 = assay: MTT analysis, anticancer activity; format: cell-based, human; details: MTT, 48 hr
HS-578T = assay: MTT analysis, anticancer activity; format: cell-based, human; details: MTT, 48 hr
MCF-7 = assay: MTT analysis, anticancer activity; format: cell-based, human; details: MTT, 48 hr
SK-BR-3 = assay: MTT analysis, anticancer activity; format: cell-based, human; details: 48 hr
T-47D = assay: MTT analysis, anticancer activity; format: cell-based, human; details: 48 hr
HeLa = assay: MTT analysis, anticancer activity; format: cell-based, human; details: 48 hr
ME-180 = assay: MTT analysis, anticancer activity; format: cell-based, human; details: MTT, 48 hr
HT-29 = assay: MTT analysis, anticancer activity; format: cell-based, human; details: MTT, 48 hr
LoVo = assay: MTT analysis, anticancer activity; format: cell-based, human; details: MTT, 48 hr
SK-N-SH = assay: MTT analysis, anticancer activity; format: cell-based, human; details: 48 hr
T98G = assay: MTT analysis, anticancer activity; format: cell-based, human; details: 48 hr
HS-746T = assay: MTT analysis, anticancer activity; format: cell-based, human; details: MTT, 48 hr
KATO-III = assay: MTT analysis, anticancer activity; format: cell-based, human; details: MTT, 48 hr
A431 = assay: MTT analysis, anticancer activity; format: cell-based, human; details: 48 hr
Hep-2 [4] = assay: MTT analysis, anticancer activity; format: cell-based, human; details: MTT, 48 hr
HT1080 = assay: MTT analysis, anticancer activity; format: cell-based, human; details: 48 hr
NCI-H69 = assay: MTT analysis, anticancer activity; format: cell-based, human; details: MTT, 48 hr
SK-MEL-28 [5] = assay: MTT analysis, anticancer activity; format: cell-based, human; details: 48 hr
SK-OV-3 = assay: MTT analysis, anticancer activity; format: cell-based, human; details: MTT, 48 hr
HS683 = assay: MTT analysis, anticancer activity; format: cell-based, human; details: 48 hr
293 = assay: MTT analysis, cytotoxicity against normal cell line; format: cell-based, human; details: MTT, 48 hr
3T3-L1 = assay: as above; format: cell-based, mouse; details: MTT, 48 hr
CHO = assay: as above; format: cell-based, Chinese hamster; details: MTT, 48 hr
CPAE = assay: as above; format: cell-based, bovine; details: MTT, 48 hr
HS27 = assay: as above; format: cell-based, human; details: MTT, 48 hr
NIH-3T3 [6] = assay: as above; format: cell-based, mouse; details: MTT, 48 hr
SK-Hep-1 [7] = assay: Adhesion of cancer cell to Matri-Gel; format: cell-based, human
Experimental: (§1) After treating HNP-98701 on tissue culture plate coated with the matrices, cancer cell was attached thereupon. To be specific, 50 μl/ml of […], 2 μg/ml of laminin, 2 μg/ml of collagen and 2 μg/ml of gelatin were coated on the surface of 96-well microplate (Corning Co.) per well. After solidifying for 2 hr, HNP-98701 was added to each well and treated for 1 hr. […] After treating the substances for 1 hr, cancer cell was added to each cell, and it was cultured for 3 hr. […] After culturing these cell lines for 3 hr, they were centrifuged. After collecting biomass only, it was washed with distilled water or PBS buffer solution for three times. […] Then, absorbance was measured at 560-405 nm with automatic Eliza detector (Molecular […] Corp., USA). […] Each experiment was performed for three times repeatedly.

NIH-3T3 [8] = assay: Adhesion of cell to Matri-Gel; format: cell-based, mouse
Experimental: as §1

Hep-2 [9] = assay: Adhesion of cancer cell to Laminin; format: cell-based, human
Experimental: as §1

SK-Hep-1 [10] = assay: Adhesion of cancer cell to Laminin; format: cell-based, human
Experimental: as §1

SK-MEL-28 [11] = assay: Adhesion of cancer cell to Laminin; format: cell-based, human
Experimental: as §1

NIH-3T3 [12] = assay: Adhesion of cell to Laminin; format: cell-based, mouse
Experimental: as §1

Hep-2 [13] = assay: Adhesion of cancer cell to Collagen; format: cell-based, human
Experimental: as §1

SK-Hep-1 [14] = assay: Adhesion of cancer cell to Collagen; format: cell-based, human
Experimental: as §1

SK-MEL-28 [15] = assay: Adhesion of cancer cell to Collagen; format: cell-based, human
Experimental: as §1

NIH-3T3 [16] = assay: Adhesion of cell to Collagen; format: cell-based, mouse
Experimental: as §1

Hep-2 [17] = assay: Adhesion of cancer cell to Gelatin; format: cell-based, human
Experimental: as §1

SK-Hep-1 [18] = assay: Adhesion of cancer cell to Gelatin; format: cell-based, human
Experimental: as §1

SK-MEL-28 [19] = assay: Adhesion of cancer cell to Gelatin; format: cell-based, human
Experimental: as §1

NIH-3T3 [20] = assay: Adhesion of cell to Gelatin; format: cell-based, mouse
Experimental: as §1

## N.N.[Cl][Pt][Cl] [Cisplatin]
[1]
  IC50 SK-Hep-1: 5.4350 µg/mL and 4.2950 µg/mL
[2]
  IC50 PC-3: 2.4867 µg/mL
[3]
  IC50 DU-145: 3.0012 µg/mL
BT-20
  IC50 BT-20: 1.4578 µg/mL
BT-549
  IC50 BT-549: 1.2522 µg/mL
HS-578T
  IC50 HS-578T: 2.3317 µg/mL
MCF-7
  IC50 MCF-7: 2.9412 µg/mL
SK-BR-3
  IC50 SK-BR-3: 1.1748 µg/mL
T-47D
  IC50 T-47D: 2.0468 µg/mL
HeLa
  IC50 HeLa: 5.3358 µg/mL
ME-180
  IC50 ME-180: 0.9365 μg/ml
HT-29
  IC50 HT-29: 6.1224 µg/mL
LoVo
  IC50 LoVo: 0.7318 µg/mL
SK-N-SH
  IC50 SK-N-SH: 2.1178 µg/mL
T98G
  IC50 T98G: 7.9216 µg/mL
HS-746T
  IC50 HS-746T: 2.7680 µg/mL
KATO-III
  IC50 KATO-III: 2.2875 µg/mL
A431
  IC50 A431: 0.4240 µg/mL
Hep-2 [4]
  IC50 Hep-2: 0.5518 µg/mL
HT1080
  IC50 HT1080: 2.9512 µg/mL
NCI-H69
  IC50 NCI-H69: 0.6382 µg/mL
SK-MEL-28 [5]
  IC50 SK-MEL-28: 4.3157 µg/mL
SK-OV-3
  IC50 SK-OV-3: 5.3442 µg/mL
HS683
  IC50 HS683: 0.2490 µg/mL
293
  IC50 293: 1.1678 µg/mL
3T3-L1
  IC50 3T3-L1: 2.7096 µg/mL
CHO
  IC50 CHO: 2.8462 µg/mL
CPAE
  IC50 CPAE: 0.8252 µg/mL
HS27
  IC50 HS27: 1.7853 µg/mL
NIH-3T3 [6]
  IC50 NIH-3T3: 1.9756 µg/mL
SK-Hep-1 [7]; 0.5 μg/ml
  Adhesion SK-Hep-1 (%): 96.41%
SK-Hep-1 [7]; 5 μg/ml
  Adhesion SK-Hep-1 (%): 105.27%
SK-Hep-1 [7]; 50 μg/ml
  Adhesion SK-Hep-1 (%): 108.26%
NIH-3T3 [8]; 0.5 μg/ml
  Adhesion NIH-3T3 (%): 105.67%
NIH-3T3 [8]; 5 μg/ml
  Adhesion NIH-3T3 (%): 102.40%
NIH-3T3 [8]; 50 μg/ml
  Adhesion NIH-3T3 (%): 101.06%
Hep-2 [9]; 0.5 μg/ml
  Adhesion Hep-2 (%): 102.63%
Hep-2 [9]; 5 μg/ml
  Adhesion Hep-2 (%): 101.25%
Hep-2 [9]; 50 μg/ml
  Adhesion Hep-2 (%): 95.87%
SK-Hep-1 [10]; 0.5 μg/ml
  Adhesion SK-Hep-1 (%): 95.65%
SK-Hep-1 [10]; 5 μg/ml
  Adhesion SK-Hep-1 (%): 93.53%
SK-Hep-1 [10]; 50 μg/ml
  Adhesion SK-Hep-1 (%): 88.74%
SK-MEL-28 [11]; 0.5 μg/ml
  Adhesion SK-MEL-28 (%): 110.19%
SK-MEL-28 [11]; 5 μg/ml
  Adhesion SK-MEL-28 (%): 105.36%
SK-MEL-28 [11]; 50 μg/ml
  Adhesion SK-MEL-28 (%): 101.16%
NIH-3T3 [12]; 0.5 μg/ml
  Adhesion NIH-3T3 (%): 93.86%
NIH-3T3 [12]; 5 μg/ml
  Adhesion NIH-3T3 (%): 94.94%
NIH-3T3 [12]; 50 μg/ml
  Adhesion NIH-3T3 (%): 92.45%
Hep-2 [13]; 0.5 μg/ml
  Adhesion Hep-2 (%): 92.23%
Hep-2 [13]; 5 μg/ml
  Adhesion Hep-2 (%): 89.35%
Hep-2 [13]; 50 μg/ml
  Adhesion Hep-2 (%): 82.83%
SK-Hep-1 [14]; 0.5 μg/ml
  Adhesion SK-Hep-1 (%): 104.22%
SK-Hep-1 [14]; 5 μg/ml
  Adhesion SK-Hep-1 (%): 104.57%
SK-Hep-1 [14]; 50 μg/ml
  Adhesion SK-Hep-1 (%): 95.90%
SK-MEL-28 [15]; 0.5 μg/ml
  Adhesion SK-MEL-28 (%): 98.46%
SK-MEL-28 [15]; 5 μg/ml
  Adhesion SK-MEL-28 (%): 106.83%
SK-MEL-28 [15]; 50 μg/ml
  Adhesion SK-MEL-28 (%): 117.62%
NIH-3T3 [16]; 0.5 μg/ml
  Adhesion NIH-3T3 (%): 112.51%
NIH-3T3 [16]; 5 μg/ml
  Adhesion NIH-3T3 (%): 108.91%
NIH-3T3 [16]; 50 μg/ml
  Adhesion NIH-3T3 (%): 98.94%
Hep-2 [17]; 0.5 μg/ml
  Adhesion Hep-2 (%): 97.20%
Hep-2 [17]; 5 μg/ml
  Adhesion Hep-2 (%): 100.13%
Hep-2 [17]; 50 μg/ml
  Adhesion Hep-2 (%): 91.07%
SK-Hep-1 [18]; 0.5 μg/ml
  Adhesion SK-Hep-1 (%): 79.16%
SK-Hep-1 [18]; 5 μg/ml
  Adhesion SK-Hep-1 (%): 74.84%
SK-Hep-1 [18]; 50 μg/ml
  Adhesion SK-Hep-1 (%): 61.25%
SK-MEL-28 [19]; 0.5 μg/ml
  Adhesion SK-MEL-28 (%): 92.48%
SK-MEL-28 [19]; 5 μg/ml
  Adhesion SK-MEL-28 (%): 91.13%
SK-MEL-28 [19]; 50 μg/ml
  Adhesion SK-MEL-28 (%): 86.40%
NIH-3T3 [20]; 0.5 μg/ml
  Adhesion NIH-3T3 (%): 111.43%
NIH-3T3 [20]; 5 μg/ml
  Adhesion NIH-3T3 (%): 110.48%
NIH-3T3 [20]; 50 μg/ml
  Adhesion NIH-3T3 (%): 100.10%
